US20130296347A1, “Compositions and Methods for Prophylaxis and Treatment of Addictions” (Omeros Corporation, priority 2007, published 2013)
Entries after “also recorded” stand apart in the source; their conditions may differ.

Columns and labels:
msP rats [1] = experiment: Yohimbine-induced (stress) reinstatement of alcohol seeking
Text: Stress-induced reinstatement of alcohol-seeking experimental procedures consisted of three phases: (1) training phase; (2) extinction phase; and (3) reinstatement phase, as described below.
For the training phase, after completion of the fading procedure, msP rats were trained to self-administer 10% (v/v) alcohol for 15 days in 30-min daily sessions under a FR1 schedule of reinforcement. During the infusion, a stimulus house light was turned on for 5 s (time out; TO).
For the extinction phase, after the last alcohol self-administration session, animals were subjected to 30-min extinction sessions for 15 consecutive days.
The day after the last extinction session, rats were subjected to the reinstatement test.
Animals received all drug treatments according to a counterbalance Latin square design. A 3-day interval, during which animals were subjected to extinction sessions, was allowed between drug tests.

alcoholic patients = experiment: Observational study of alcohol abuse in human patients; assay type: in vivo
Text: ACT)+psychotherapy. […] Patients were instructed to record in a personal logbook the number of drinks per day and the time of the day drinks occurred. At the end of the study, the logbooks were returned to the clinical personnel who analyzed the data. […] In addition, biochemical parameters to ascertain alcohol detoxification and to measure recovery of physiological functions (i.e., hepatic function) were monitored monthly. Hematological parameters measured included: mean corpuscular volume (MCV); gamma-GT; aspartate aminotransferase (AST); alanine aminotransferase (ALT); and carbohydrate-deficient transferring (CDT). MCV and CDT are biomarkers for ethanol consumption, and GGT, ALT and AST are biomarkers for hepatic functionality. Data were analyzed by analysis of variance followed by Newman-Keuls post hoc tests when appropriate.

[2] = Young, Buckle et al. 1998; Breidert et al. 2002; cited from earlier work
Long Evans rats = experiment: Yohimbine-induced reinstatement of nicotine seeking; assay type: in vivo, rat; conditions: pioglitazone all doses tested (5.0, 10.0 and 30.0 mg/kg), 12 and 1 hour before test
Method: Stress and anxiety are major factors in resuming nicotine use in former abstinent users. […] Reinstatement experiments and relative drug treatments were performed every third day. Between reinstatements, extinction baseline was re-established.

[3] = test system: Marchigian Sardinian alcohol-preferring (msP) rats; experiment: Acute voluntary ethanol intake, alcohol access restricted to 2 hours/day; assay type: in vivo, rat
Method: (§1) At the beginning of the experiments, msP rats were allowed free choice between water and 10% (v/v) alcohol 24 h/day for at least 15 days. The fluids were offered in graduated drinking tubes equipped with metallic drinking spouts. The position (to the right or left) of alcohol and water drinking tubes was changed daily to avoid the development of side preference. Water and food were available ad libitum, while alcohol access was either restricted to 2 hours/day (Examples 1 and 2) or was available 24 hours/day (Examples 3 and 4). Alcohol, water and food intakes were measured.
. After acquisition of a stable baseline of ethanol intake (6-8 g/kg bw; daily), alcohol access was restricted to 2 hours a day at the beginning of the dark phase. Water and food were freely available.
(§2) […]. Before starting the treatment, rats were trained to gavage administration procedures for three days, during which they received vehicle (distilled water).
Treatments were carried out at intervals of at least three days. […] Drinking experiments were conducted right at the beginning of the dark cycle. Alcohol, water and food intakes were monitored at 30, 60, 90 and 120 minutes after ethanol was made available.
The msP rats (n=8) were prepared for the study as described in Example 1. After acquisition of a stable baseline of ethanol intake, alcohol access was restricted to 2 hours a day at the beginning of the dark phase. Water and food were freely available. […]. The experiment was conducted using a within subject counterbalanced Latine square design where each animal received all drug doses.
These experiments were conducted at the beginning of the dark cycle and alcohol, and water and food intakes were monitored at 30, 60, 90 and 120 minutes after ethanol was made available.

msP rats [4] = experiment: Acute voluntary ethanol intake, free choice 10% alcohol 24 hours a day; assay type: in vivo, rat
Method: MsP rats were first trained to drink 10% (w/v) alcohol for 24 hours a day (free choice between water and ethanol). […] Before starting the treatment, rats were trained to gavage administration procedures for three days, during which they received vehicle (distilled water). […] Drinking experiments started at the beginning of the dark cycle. Alcohol, water and food intakes were monitored at 2, 8 and 24 hours after ethanol was made available.
Before starting the treatment, rats were trained to gavage and IP administration procedures for three days. Experiment was conducted in a between subject design (n=22). […] Drinking experiments started at the beginning of the dark cycle. Alcohol, water and food intakes were monitored at 2, 8 and 24 hours after ethanol was made available.
The drinking experiments were conducted at the beginning of the dark cycle, and alcohol, water and food intakes were monitored at 2, 8 and 24 hours after ethanol was made available.
(§3) MsP rats were first trained to drink 10% (w/v) alcohol for 24 hours a day (free choice between water and ethanol). […] Rats treated with drug vehicles served as a control. Before starting the treatment, rats were trained to gavage administration for three days, during which they received drugs vehicle (distilled water). […] Drinking experiments started at the beginning of the dark cycle. Alcohol, water, and food intakes were monitored at 2, 8 and 24 hours after ethanol was made available.
as §3, with “water” for “water,”
as §3, with “water” for “water,”
as §3, with “water” for “water,”
as §3, with “water” for “water,”
as §3, with “water” for “water,”

[5] = test system: Marchigian Sardinian alcohol-preferring (msP) rats; experiment: Subchronic (7 days) voluntary ethanol intake, 10% alcohol available 24 hours/day; assay type: in vivo, rat
Method: as §1, §2
Alcohol, water and food intakes were monitored at 2, 8 and 24 hours. Fluids and food intakes were monitored for three additional days after the end of the drug treatment period.
[…]. According to a between-subject design, four groups of msP rats (N=9/group) were prepared as described in Example 3. […] […]. Alcohol, water and food intakes were monitored at 2, 8 and 24 hours. Fluids and food intakes were monitored for three additional days after the end of the drug treatment period.

msP rats [6] = experiment: Cue-induced reinstatement of alcohol seeking; assay type: in vivo, rat; conditions: pioglitazone 10.0, 30.0 mg/kg at 12 hours and 1 hour before test
Method: Cue-induced reinstatement of alcohol-seeking behaviour experimental procedures consisted of three phases: (1) conditioning phase; (2) extinction phase; and (3) reinstatement phase, as described below.
For the conditioning phase, at the completion of the fading procedure (see above), in 30 min daily sessions, animals were trained to discriminate between 10% alcohol and water. Beginning with self-administration training at the 10% alcohol concentration, discriminative stimuli (SD) predictive of alcohol versus water availability were presented during the alcohol and water self-administration sessions, respectively. The discriminative stimulus for alcohol consisted of the odour of an orange extract (S^+) whereas water availability (i.e. no reward) was signalled by an anise extract (S^−). The olfactory stimuli were generated by depositing six to eight drops of the respective extract into the bedding of the operant chamber. In addition, each lever-press resulting in delivery of alcohol was paired with illumination of the chamber's house light for 5 sec (CS^+). The corresponding cue during water sessions was a 5 second tone (70 dB) (CS). Concurrently with the presentation of these stimuli, a 5 sec. time-out period was in effect, during which responses were recorded but not reinforced. The olfactory stimuli serving as S^+ or S^− for alcohol availability were introduced one minute before extension of the levers and remained present throughout the 30-min. sessions. The bedding of the chamber was changed and bedding trays were cleaned between sessions. During the first three days of the conditioning phase, the rats were given alcohol sessions only. Subsequently, alcohol and water sessions were conducted in random order across training days, with the constraint that all rats received a total of 10 alcohol and 10 water sessions.
For the extinction phase, after the last conditioning day, rats were subjected to 30-min extinction sessions for 15 consecutive days. During this phase, sessions began by extension of the levers without presentation of the SD. […]

[7] = pioglitazone 30 mg/day or naltrexone 50 mg/day + psychotherapy
[8] = pioglitazone 30 mg/kg OS at 12 hours and 1 hour before access to ethanol

CCc1ccc(CCOc2ccc(CC3SC(=O)NC3=O)cc2)nc1.Cl (stereo not shown) [pioglitazone]
yohimbine-induced reinstatement of alcohol seeking (active lever) (msP rats [1]; pioglitazone 10 mg/kg OS at 12 hours and 1 hour before test): clear trend (p=0.07) to an inhibition
yohimbine-induced reinstatement of alcohol seeking (active lever) (msP rats [1]; pioglitazone 30 mg/kg OS at 12 hours and 1 hour before test, p<0.01): significant inhibition
effect of yohimbine on reinstatement of responding, overall (msP rats [1]; pre-treatment with pioglitazone 10.0 and 30.0 mg/kg): significantly reduced; also recorded: markedly reduced
hepatic parameters (GGT, ALT, AST) (alcoholic patients; 2-month treatment): more pronounced
Anxiety Score, STAY-Y1 scale (mean score values) (alcoholic patients; T = 1.1 (month 1, week 1)): 58
Depression Scale M.A.D.R.S (mean score values) (alcoholic patients; T = 1.3): 10
Depression Scale M.A.D.R.S (mean score values) (alcoholic patients; T = 1.4): 11
Depression Scale M.A.D.R.S (mean score values) (alcoholic patients; T = 2.3): 10
depression score, time course (alcoholic patients; during treatment with pioglitazone 30 mg/day): decreased starting from the second week of treatment
effect on daily drinks, comparison of drugs (alcoholic patients; month 2 week 2 (T2.2) to month 2 week 4 (T2.4), p<0.001): significantly higher than that of naltrexone
blood parameters (MCV, CDT, GGT, ALT, AST) (alcoholic patients; pioglitazone 30 mg/day): rapid normalization
progressive decrease in anxiety score during treatment (alcoholic patients; pioglitazone 30 mg/day): highest effect
progressive decrease in obsessive compulsive score for alcohol (OCDS) (alcoholic patients; pioglitazone 30 mg/day): extremely robust; also recorded: consistently reduced
daily ethanol intake (number of daily drinks) (alcoholic patients; [7]): significantly reduced
number of abstinence days (alcoholic patients; [7]): increased; also recorded: highest effect
CDT and AST, naltrexone versus pioglitazone (alcoholic patients; post hoc): No significant difference
OCDS versus controls (alcoholic patients; post hoc, P<0.001): statistically significant difference
all five blood biomarkers versus controls (psychotherapy alone) (alcoholic patients; post hoc, P<0.001): statistical difference
reducing the values of MCV, GGT and ALT, comparison of drugs (alcoholic patients; post hoc, P<0.001): more effective than naltrexone
MADRS depression score, pioglitazone versus naltrexone (alcoholic patients; post hoc, p<0.001): significantly different
OCDS, pioglitazone versus naltrexone (alcoholic patients; post hoc, p<0.001): more effective than naltrexone
anxiety score, pioglitazone versus naltrexone (alcoholic patients; post hoc, p<0.001): more effective than naltrexone
number of abstinence days, comparison of drugs (alcoholic patients; second month of therapy (T 2.1-T2.4)): significantly higher
crossing of the blood brain barrier compared with rosiglitazone [2]: crosses the blood brain barrier more easily
yohimbine-induced reinstatement of nicotine seeking (Long Evans rats): prevented; also recorded: significantly (p<0.001) decreased
ethanol consumption at 30, 60, or 90 minutes [3, 8]: not at 30, 60, or 90 minutes
ethanol consumption at 2 hours [3, 8]: significantly reduced
ethanol intake, overall treatment effect (ANOVA) ([3]; pioglitazone 10.0, 30.0 mg/kg OS): absence of a significant treatment effect
ethanol intake, drug alone (post-hoc) (msP rats [4]; low dose given at 12 hours and 1 hour before access, pioglitazone 10 mg/kg OS, partner drugs at doses of the examples): did not significantly modify
ethanol intake at 2 hours, drug alone (msP rats [4]; pioglitazone 10 mg/kg OS, topiramate 30.0 mg/kg OS, p<0.05): significant reduction
ethanol consumption at 2 hours (msP rats [4]; pioglitazone 30 mg/kg OS): significantly reduced
ethanol consumption at 8 hours (msP rats [4]; pioglitazone 30 mg/kg OS): significantly reduced
ethanol consumption at 24 hours (msP rats [4]; pioglitazone 30 mg/kg OS): significantly reduced
voluntary ethanol intake, overall ([5]; pioglitazone 10.0 or 30.0 mg/kg OS twice a day for 7 days): significantly reduced
ethanol intake starting from the 4th day of treatment ([5]; pioglitazone both doses (10 and 30 mg/kg)): significantly reduced
ethanol intake, onset of effect ([5]; pioglitazone highest dose (30 mg/kg), 7 days): appeared from the first day of treatment
cue-induced (conditioned) reinstatement of alcohol-seeking (msP rats [6]): not significantly modified; also recorded: lack of effect
